Patent publication EP4028131B1, “HETEROAROMATIC COMPOUNDS USEFUL IN THERAPY” (CUROVIR AB, priority 2019, dated 2021)

Legend:
[1] = cell viability assay using tetrazolium salt (MTS); details: human
Experimental: The cell viability assay using tetrazolium salt (MTS) was also performed in HEp-2 cells.

RSV [2] = assay: plaque titration assay of extracellular and cell-associated virus yield; format: cell-based; details: HEp-2 cells, MOI of 3, compound at 0.2 µM
Experimental: The titer of extracellular (EX) and cell-associated (CA) RSV after incubation in Hep-2 cells at a multiplicity of infection (MOI) of 3 was determined by a plaque titration assay. Infected cells were harvested by scraping into fresh supernatant medium and then subjected to a rapid freeze-thaw cycle at -80 °C ethanol and a 37 °C water bath, respectively, to release infectious virus.

RSV [3] = assay: time-of-addition study of antiviral effect; format: cell-based; details: HEp-2 cells, compound at 0.2 µM added from -1h to 6h relative to infection
Experimental: A time-of-addition study was performed using the compounds of Examples 25 and 61.

RSV strain A2 = assay: standard plaque reduction assay for anti-RSV activity; details: for SI (CC50/IC50): calculated selectivity index, HEp-2 cells; for IC50: human respiratory syncytial virus, HEp-2, read-out: IC50 (RSV)

Cc1cc(NCc2ccncc2)c2nc(C)c(-c3ccc4c(c3)c(C)nn4C)n2n1 [Example 61, 3-(1,3-dimethyl-1H-indazol-5-yl)-2,6-dimethyl-N-(pyridin-4-ylmethyl)imidazo[1,2-b]pyridazin-8-amine]
CC50 [1]: 18 µM | inhibition of cell-associated (CA) RSV yield (RSV [2]): approximately 1 log10 | inhibition of extracellular (EX) RSV yield (RSV [2]): approximately 1 log10 | time dependency of inhibition of RSV yield (RSV [3]): time-independent inhibition of RSV yield | SI (CC50/IC50) (RSV strain A2): 514 | IC50 (RSV strain A2): 0.034 µM

COc1ccc(-c2c(C)nc3c(NCc4ccncc4)cc(C)nn23)cc1OC [Example 1, 3-(3,4-dimethoxyphenyl)-2,6-dimethyl-N-(pyridin-4-ylmethyl)imidazo[1,2-b]pyridazin-8-amine]
CC50 [1]: 60 µM | SI (CC50/IC50) (RSV strain A2): 2000 | IC50 (RSV strain A2): 0.03 µM

Cc1cc(CNc2cc(C)nc3c(-c4ccc5c(c4)c(C)nn5C)c(C)nn23)ccn1 [Example 5, 3-(1,3-dimethyl-1H-indazol-5-yl)-2,5-dimethyl-N-[(2-methylpyridin-4-yl)methyl]pyrazolo[1,5-a]pyrimidin-7-amine]
CC50 [1]: 18 µM | SI (CC50/IC50) (RSV strain A2): 450 | IC50 (RSV strain A2): 0.04 µM

COc1ccc(-c2c(C)nn3c(NCc4ccc(C)nc4)cc(C)nc23)cc1OC [Example 29, 3-(3,4-dimethoxyphenyl)-2,5-dimethyl-N-[(6-methyl-3-pyridyl)methyl]pyrazolo[1,5-a]pyrimidin-7-amine]
CC50 ([1]; HEp-2 cells): 60 µM | SI (CC50/IC50) (RSV strain A2): 150 | IC50 (RSV strain A2): 0.04 µM

COc1ccc(-c2c(C)nn3c(NCc4ccc(S(N)(=O)=O)cc4)nc(C)nc23)cc1OC [Example 45, 4-[[[8-(3,4-dimethoxyphenyl)-2,7-dimethylpyrazolo[1,5-a][1,3,5]triazin-4-yl]amino]methyl]benzenesulfonamide]
CC50 [1]: > 500 µM | SI (CC50/IC50) (RSV strain A2): >7143 | IC50 (RSV strain A2): 0.07 µM

Cc1cc(NCc2ccncc2)n2nc(C)c(-c3ccc4c(c3)c(C)nn4C)c2n1 [Example 68, 3-(1,3-dimethyl-1H-indazol-5-yl)-2,5-dimethyl-N-(pyridin-4-ylmethyl)pyrazolo[1,5-a]pyrimidin-7-amine]
CC50 [1]: 40 µM | SI (CC50/IC50) (RSV strain A2): 1000 | IC50 (RSV strain A2): 0.04 µM

COc1ccc(-c2c(C)nn3c(NCc4ccncc4)nc(C)nc23)cc1OC [Example 38, 8-(3,4-dimethoxyphenyl)-2,7-dimethyl-N-(4-pyridylmethyl)pyrazolo[1,5-a][1,3,5]triazin-4-amine]
CC50 [1]: 60 µM | SI (CC50/IC50) (RSV strain A2): 667 | IC50 (RSV strain A2): 0.09 µM

Cc1cc(CCCOc2c(C)cc(-c3noc(C(F)(F)F)n3)cc2C)on1 [Pleconaril, reference compound]
CC50 [1]: 300 µM | SI (CC50/IC50) (RSV strain A2): 38 | IC50 (RSV strain A2): 8 µM

CC(=O)Nc1nc(C)c(-c2ccc(Cl)c(S(=O)(=O)NCCO)c2)s1 [PIK-93, reference compound]
IC50 (RSV strain A2): 0.4 µM

COc1ccc(-c2c(C)nn3c(NCc4cccc(S(C)(=O)=O)c4)cc(C)nc23)cc1OC [Example 25, 3-(3,4-dimethoxyphenyl)-2,5-dimethyl-N-[(3-methylsulfonylphenyl)methyl]pyrazolo[1,5-a]pyrimidin-7-amine]
CC50 [1]: > 500 µM | inhibition of cell-associated (CA) RSV yield (RSV [2]): approximately 1 log10 | inhibition of extracellular (EX) RSV yield (RSV [2]): approximately 1 log10 | time dependency of inhibition of RSV yield (RSV [3]): time-independent inhibition of RSV yield | SI (CC50/IC50) (RSV strain A2): >25000 | IC50 (RSV strain A2): 0.02 µM

CCc1cc(CNc2cc(C)nc3c(-c4ccc5c(c4)c(C)nn5C)c(C)nn23)ccn1 [Example 6, 3-(1,3-dimethyl-1H-indazol-5-yl)-2,5-dimethyl-N-[(2-ethylpyridin-4-yl)methyl]pyrazolo[1,5-a]pyrimidin-7-amine]
CC50 [1]: 160 µM | SI (CC50/IC50) (RSV strain A2): 3200 | IC50 (RSV strain A2): 0.05 µM
